Measured values taken from ChEMBL document CHEMBL1201862, “PubChem BioAssay data set” (2004).
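The compound was tested at five concentrations on cells cultured in 96-well plates, with a 48-hour exposure period. GI50: concentration for 50% inhibition of growth.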 Active and inactive are the calls of the source. Cut-off read from the data, not from the text of the source: active = GI50 up to about 1.1 µM and inactive = higher. Peptide text beside a SMILES is read from it.

Columns and labels:
Assay in all cases: growth of human tumour cells (NCI), 48 h
CCRF-CEM = system: CCRF-CEM
DU-145 = system: DU-145
HCC 2998 = system: HCC 2998
HCT-15 = system: HCT-15
K562 = system: K562
KM12 = system: KM12
LOX IMVI = system: LOX IMVI
M14 = system: M14
MDA-N = system: MDA-N
NCI-H226 = system: NCI-H226
NCI-H23 = system: NCI-H23
OVCAR-3 = system: OVCAR-3
OVCAR-8 = system: OVCAR-8
SF-268 = system: SF-268
SF-295 = system: SF-295
SK-OV-3 = system: SK-OV-3
SN12C = system: SN12C
U-251 = system: U-251
UACC-257 = system: UACC-257
HOP-92 = system: HOP-92

Row | Structure (SMILES) | GI50 (CCRF-CEM) | GI50 (DU-145) | GI50 (HCC 2998) | GI50 (HCT-15) | GI50 (K562) | GI50 (KM12) | GI50 (LOX IMVI) | GI50 (M14) | GI50 (MDA-N) | GI50 (NCI-H226) | GI50 (NCI-H23) | GI50 (OVCAR-3) | GI50 (OVCAR-8) | GI50 (SF-268) | GI50 (SF-295) | GI50 (SK-OV-3) | GI50 (SN12C) | GI50 (U-251) | GI50 (UACC-257) | GI50 (HOP-92)
1 | CC1(C)CC(=O)C2=C(C1)NC1=C(C2)C(=O)CC(C)(C)C1 | > 100 µM (inactive) | > 100 µM (inactive) | > 100 µM (inactive) | > 100 µM | > 100 µM (inactive) | > 100 µM (inactive) | > 100 µM (inactive) | > 100 µM (inactive) | > 100 µM (inactive) | > 100 µM (inactive) | > 100 µM (inactive) | > 100 µM (inactive) | > 100 µM (inactive) | > 100 µM (inactive) | > 100 µM (inactive) | > 100 µM (inactive) | > 100 µM (inactive) | > 100 µM (inactive) | > 100 µM (inactive) | 
2 | CC(C)CC(NC(=O)C(CC(C)C)NC(=O)C(Cc1c[nH]cn1)NC(=O)C(C)NC(=O)C(NC(=O)C(C)NC(=O)C(Cc1c[nH]c2ccccc12)NC(=O)C(CCC(=O)O)NC(=O)C(N)Cc1ccccc1)C(C)C)C(N)=O (stereo unspecified) (H-FEWAVAHLL-NH2; configuration not given here) | > 12.5 µM (inactive) | > 12.5 µM (inactive) | > 12.5 µM (inactive) | > 12.5 µM | > 12.5 µM (inactive) | > 12.5 µM (inactive) | > 12.5 µM (inactive) | > 12.5 µM (inactive) | > 12.5 µM (inactive) | > 12.5 µM (inactive) | > 12.5 µM (inactive) | > 12.5 µM (inactive) | > 12.5 µM (inactive) | > 12.5 µM (inactive) | > 12.5 µM (inactive) | > 12.5 µM (inactive) | > 12.5 µM (inactive) | > 12.5 µM (inactive) | > 12.5 µM (inactive) | 
3 | Cc1nc2sc3ccccc3n2c(=O)c1/N=N/c1ccc(Br)cc1 | 77.8 µM (inactive) | > 100 µM (inactive) |  | > 100 µM | 81.1 µM (inactive) | > 100 µM (inactive) | 54.8 µM (inactive) | > 100 µM (inactive) | > 100 µM (inactive) | 44.8 µM (inactive) | > 100 µM (inactive) | > 100 µM (inactive) | > 100 µM (inactive) | 70.5 µM (inactive) | > 100 µM (inactive) | > 100 µM (inactive) | > 100 µM (inactive) | > 100 µM (inactive) | > 100 µM (inactive) | 76.4 µM (inactive)
4 | O=S(=O)(O)c1cc(Nc2ccnc3ccccc23)c2c(S(=O)(=O)O)cc(S(=O)(=O)O)cc2c1 | > 100 µM (inactive) | > 100 µM (inactive) | > 100 µM (inactive) | > 100 µM |  | > 100 µM (inactive) | > 100 µM (inactive) | > 100 µM (inactive) | > 100 µM (inactive) | > 100 µM (inactive) | > 100 µM (inactive) | > 100 µM (inactive) | > 100 µM (inactive) | > 100 µM (inactive) |  | > 100 µM (inactive) | > 100 µM (inactive) | > 100 µM (inactive) | > 100 µM (inactive) | 
5 | CC1=NN(C(=O)CSc2nnc(SCC(=O)N3N=C(C)CC3(O)c3ccccc3)s2)C(O)(c2ccccc2)C1 (stereo unspecified) | 18.7 µM (inactive) | 35.5 µM (inactive) | > 100 µM (inactive) | 33.2 µM | 32.6 µM (inactive) | 26.7 µM (inactive) | 22.8 µM (inactive) | 16.1 µM (inactive) | 39.6 µM (inactive) |  | 34 µM (inactive) | 41.1 µM (inactive) | 26.9 µM (inactive) | 12.8 µM (inactive) | 42 µM (inactive) | > 100 µM (inactive) | 61.7 µM (inactive) | > 100 µM (inactive) | 43.8 µM (inactive) | 33.7 µM (inactive)
6 | O=C(C(=O)c1cc(-c2ccccc2)nc2ccc3ccccc3c12)c1ccccc1 | 24.7 µM (inactive) | > 100 µM (inactive) | > 100 µM (inactive) | 75 µM | 18.5 µM (inactive) | 31.3 µM (inactive) | 52 µM (inactive) | 67.5 µM (inactive) | 36.1 µM (inactive) | 72.6 µM (inactive) | 34.1 µM (inactive) | 67.1 µM (inactive) | 61.2 µM (inactive) | 20.8 µM (inactive) | 52.5 µM (inactive) | 46.7 µM (inactive) | > 100 µM (inactive) | 34.5 µM (inactive) | 75.7 µM (inactive) | 
7 | O=C(/C=C\c1ccccc1)Oc1ccc(/C=C2\CCC/C(=C\c3ccc(OC(=O)/C=C\c4ccccc4)cc3)C2=O)cc1 | > 100 µM (inactive) | > 100 µM (inactive) | > 100 µM (inactive) | > 100 µM |  | > 100 µM (inactive) | > 100 µM (inactive) | > 100 µM (inactive) | > 100 µM (inactive) |  | > 100 µM (inactive) | > 100 µM (inactive) | > 100 µM (inactive) | > 100 µM (inactive) | > 100 µM (inactive) |  | > 100 µM (inactive) | > 100 µM (inactive) | > 100 µM (inactive) | > 100 µM (inactive)
8 | COc1cc(/C=C/C(=O)CC(=O)/C=C/c2cc(OC)c(O)c(OC)c2)cc(OC)c1O | > 25 µM (inactive) | 7.83 µM (inactive) | 5.37 µM (inactive) | > 25 µM | 8.69 µM (inactive) | 6.15 µM (inactive) | 7.82 µM (inactive) | 8.61 µM (inactive) | 4.74 µM (inactive) | 10.2 µM (inactive) | 10.3 µM (inactive) | 6.85 µM (inactive) | 10.4 µM (inactive) | 5.37 µM (inactive) | 9.91 µM (inactive) | 7.94 µM (inactive) | 6.68 µM (inactive) | 8.11 µM (inactive) | 8.34 µM (inactive) | 
9 | Clc1ccc(CN2CCCN(Cc3ccc(Cl)cc3)C2c2cc3ccccc3c3ccccc23)cc1 |  | 44.2 µM (inactive) |  | 62.8 µM |  | 60.3 µM (inactive) | 36.5 µM (inactive) | 18.7 µM (inactive) | 37.2 µM (inactive) | > 100 µM (inactive) | 46.3 µM (inactive) | 57.9 µM (inactive) | > 100 µM (inactive) | 44.3 µM (inactive) | 52.2 µM (inactive) | > 100 µM (inactive) | 67.3 µM (inactive) | 33.3 µM (inactive) | 22.8 µM (inactive) | 74 µM (inactive)
10 | Cc1cccc(C)c1NC(=O)/C=C/c1ccccc1 | > 100 µM (inactive) | > 100 µM (inactive) | > 100 µM (inactive) | > 100 µM | > 100 µM (inactive) | > 100 µM (inactive) | > 100 µM (inactive) | > 100 µM (inactive) | > 100 µM (inactive) | 20.3 µM (inactive) | > 100 µM (inactive) | > 100 µM (inactive) | 73.1 µM (inactive) | > 100 µM (inactive) | 88.5 µM (inactive) | > 100 µM (inactive) | > 100 µM (inactive) | > 100 µM (inactive) | > 100 µM (inactive) | 
11 | CC(C)c1c(O[Si](C(C)C)(C(C)C)C(C)C)cc2c(c1O)CC[C@H]1C(C)(C)CCC[C@]21C | 49.5 µM (inactive) | > 100 µM (inactive) |  | > 100 µM | 65.6 µM (inactive) | > 100 µM (inactive) | > 100 µM (inactive) | > 100 µM (inactive) | > 100 µM (inactive) | > 100 µM (inactive) | 97.5 µM (inactive) | > 100 µM (inactive) | > 100 µM (inactive) | > 100 µM (inactive) | > 100 µM (inactive) | > 100 µM (inactive) | > 100 µM (inactive) | > 100 µM (inactive) | > 100 µM (inactive) | > 100 µM (inactive)
12 | CCOC(=O)C12C(=O)CCN1CCc1ccccc1C2C (stereo unspecified) |  | > 100 µM (inactive) |  | > 100 µM | > 100 µM (inactive) | > 100 µM (inactive) | > 100 µM (inactive) | > 100 µM (inactive) | > 100 µM (inactive) | > 100 µM (inactive) | > 100 µM (inactive) | > 100 µM (inactive) | > 100 µM (inactive) | > 100 µM (inactive) | > 100 µM (inactive) | > 100 µM (inactive) | > 100 µM (inactive) | > 100 µM (inactive) | > 100 µM (inactive) | > 100 µM (inactive)
13 | O=C(OCC(Cl)(Cl)Cl)N1CC[C@@H](C2CCCCC2)C1 | 21.5 µM (inactive) | 35.6 µM (inactive) | 18.6 µM (inactive) | 18.7 µM | 21.5 µM (inactive) | 17 µM (inactive) | 40.6 µM (inactive) | 34.8 µM (inactive) | 31 µM (inactive) |  | 20.2 µM (inactive) | 18.1 µM (inactive) |  | 17.3 µM (inactive) | 19 µM (inactive) | 42.6 µM (inactive) | 29.3 µM (inactive) | 0.1 µM (active) | 28.4 µM (inactive) | 
14 | CC(=O)NN/C=N/C(C#N)=C(\N)C#N | > 100 µM (inactive) | > 100 µM (inactive) | > 100 µM (inactive) | > 100 µM | > 100 µM (inactive) | > 100 µM (inactive) | > 100 µM (inactive) | > 100 µM (inactive) | > 100 µM (inactive) | > 100 µM (inactive) | > 100 µM (inactive) | > 100 µM (inactive) | > 100 µM (inactive) | > 100 µM (inactive) | > 100 µM (inactive) | > 100 µM (inactive) | > 100 µM (inactive) | > 100 µM (inactive) | > 100 µM (inactive) | 
15 | CC12Cc3cc4c(cc3C1(c1ccc([N+](=O)[O-])cc1)OCCO2)OCO4 (stereo unspecified) | > 100 µM (inactive) | 87.1 µM (inactive) | > 100 µM (inactive) | 44.2 µM | > 100 µM (inactive) | > 100 µM (inactive) | > 100 µM (inactive) | > 100 µM (inactive) | > 100 µM (inactive) | 26.2 µM (inactive) | 42.9 µM (inactive) | > 100 µM (inactive) | 22.4 µM (inactive) | 22.8 µM (inactive) | 25.2 µM (inactive) | 16.8 µM (inactive) | 55.6 µM (inactive) | 26.9 µM (inactive) | > 100 µM (inactive) | 
